Laboratory results as given in PubChem BioAssay (NCI).
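Five concentrations, 48 hours, 96-well plates. GI50 marks 50% less growth. The concentration for full growth arrest is given as TGI.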

Legend:
Experiment in all cases: NCI-60 cell line screen, 48 h
HOP-92 NSCLC = system: HOP-92 NSCLC
OVCAR-5 ovarian = system: OVCAR-5 ovarian
OVCAR-8 ovarian = system: OVCAR-8 ovarian
SNB-19 CNS = system: SNB-19 CNS
SW-620 colon = system: SW-620 colon
MDA-MB-231 breast = system: MDA-MB-231 breast
IGROV1 ovarian = system: IGROV1 ovarian
UACC-257 melanoma = system: UACC-257 melanoma
MDA-MB-435 = system: MDA-MB-435
SF-268 CNS = system: SF-268 CNS

Structure (SMILES) | TGI (HOP-92 NSCLC) | TGI (OVCAR-5 ovarian) | TGI (OVCAR-8 ovarian) | TGI (SNB-19 CNS) | TGI (SW-620 colon) | TGI (MDA-MB-231 breast) | TGI (IGROV1 ovarian) | TGI (UACC-257 melanoma) | TGI (MDA-MB-435) | TGI (SF-268 CNS) | GI50 (HOP-92 NSCLC) | GI50 (SNB-19 CNS) | GI50 (MDA-MB-231 breast) | GI50 (UACC-257 melanoma) | GI50 (OVCAR-5 ovarian) | GI50 (OVCAR-8 ovarian) | GI50 (SW-620 colon) | GI50 (IGROV1 ovarian) | GI50 (MDA-MB-435) | GI50 (SF-268 CNS)
CC(=O)O[C@H]1CC[C@@H](OC(C)=O)[C@H]2[C@H](O)[C@H](O)[C@@H]1n1c(=O)n(-c3ccccc3)c(=O)n12 | > 100 µM | > 100 µM | > 100 µM | > 100 µM | > 100 µM | > 100 µM | > 100 µM | > 100 µM | > 100 µM | > 100 µM | – | – | – | – | – | – | – | – | – | –
O=c1[nH]c2c(Nc3c4ccccc4nc4ccccc34)c([N+](=O)[O-])c(Nc3c4ccccc4nc4ccccc34)c([N+](=O)[O-])c2[nH]1 | 4.74 µM | 5.02 µM | 12.6 µM | 13.7 µM | > 100 µM | 4.92 µM | 5.18 µM | 10.4 µM | 7.29 µM | 6.74 µM | – | – | – | – | – | – | – | – | – | –
COc1cc(C=O)cc(C=Nc2ccc(Br)cc2)c1O | 39.6 µM | > 100 µM | > 100 µM | > 100 µM | > 100 µM | 37.8 µM | > 100 µM | 34 µM | 32.5 µM | 27.8 µM | – | – | – | – | – | – | – | – | – | –
CCOC(=O)N1CCNCCN(C(=O)OCC)CCNCC1 | > 100 µM | > 100 µM | > 100 µM | > 100 µM | > 100 µM | > 100 µM | > 100 µM | > 100 µM | > 100 µM | > 100 µM | – | – | – | – | – | – | – | – | – | –
CC(C)OC(=O)C(NC(=O)C(CC(=O)OCc1ccccc1)NC(=O)OCc1ccccc1)NC(=O)C1C(C)(C)CCC1(C)C (stereo not drawn) | 24.1 µM | > 55.6 µM | 4.19 µM | 16.1 µM | 10.8 µM | 7.82 µM | 64.2 µM | > 60.8 µM | > 53.3 µM | 45.9 µM | – | – | – | – | – | – | – | – | – | –
O=C1Nc2noc(=O)nc2NO1 | > 200 µM | > 200 µM | > 200 µM | > 200 µM | > 200 µM | > 200 µM | > 200 µM | > 200 µM | > 200 µM | > 200 µM | – | – | – | – | – | – | – | – | – | –
CN(Cc1cnc2nc(N)nc(N)c2n1)c1ccc(C(=O)NC(CCC(=O)O)C(=O)O)c2ccccc12 (stereo not drawn) | > 1000 µM | > 1000 µM | > 1000 µM | > 1000 µM | > 1000 µM | > 1000 µM | > 1000 µM | – | > 1000 µM | > 1000 µM | > 1000 µM | < 0.0174 µM | > 1000 µM | < 0.0363 µM | – | – | – | – | – | –
C/C(=N/NC(=S)Nc1ccc(C)cc1)c1ccccn1 | 12.5 µM | 9.55 µM | 7.51 µM | 20.6 µM | 18.6 µM | 18.7 µM | 13.6 µM | 0.802 µM | 15 µM | 16.4 µM | – | – | – | – | – | – | – | – | – | –
COc1ccc(C2C(=O)c3ccc(OC)cc3OC2c2cccnc2)cc1 (stereo not drawn) | 97.1 µM | > 100 µM | > 100 µM | > 100 µM | > 100 µM | > 100 µM | > 100 µM | > 100 µM | > 100 µM | > 100 µM | – | – | – | – | – | – | – | – | – | –
Cc1ccc(S(=O)(=O)OCCN(CCOS(=O)(=O)c2ccc(C)cc2)c2ccc(C=O)cc2)cc1 | 75.3 µM | 64.8 µM | > 100 µM | > 100 µM | > 100 µM | > 100 µM | > 100 µM | 61 µM | 44.4 µM | > 100 µM | – | – | – | – | – | – | – | – | – | –
CCc1c(O)nc(Nc2nc3ccccc3[nH]2)[nH]c1=O | > 100 µM | > 100 µM | > 100 µM | > 100 µM | > 100 µM | > 100 µM | > 100 µM | > 100 µM | > 100 µM | > 100 µM | – | – | – | – | – | – | – | – | – | –
CC1=NC(=N)N=C(C)C1N=Nc1ccc2nc(C)[nH]c2c1 (stereo not drawn) | > 100 µM | > 100 µM | > 100 µM | > 100 µM | > 100 µM | > 100 µM | > 100 µM | > 100 µM | > 100 µM | > 100 µM | – | – | – | – | – | – | – | – | – | –
COc1cc2c(cc1O)C(Cc1ccc(OCc3ccccc3)c(OCc3ccccc3)c1)N(C(=O)NCCc1ccccc1)CC2 (stereo not drawn) | > 100 µM | > 100 µM | > 100 µM | > 100 µM | > 100 µM | > 100 µM | > 100 µM | > 100 µM | > 100 µM | > 100 µM | – | – | – | – | – | – | – | – | – | –
Cc1n[nH]c(=O)n1-n1cccc1 | > 100 µM | > 100 µM | > 100 µM | > 100 µM | > 100 µM | > 100 µM | > 100 µM | > 100 µM | > 100 µM | > 100 µM | – | – | – | – | – | – | – | – | – | –
O=C(Nc1ccc(-n2cc(-c3ccncc3)c(-c3ccc(O)c(Cl)c3)n2)cc1)Nc1cc(C(F)(F)F)cc(C(F)(F)F)c1 | 5.74 µM | 12.7 µM | 11.7 µM | 16.5 µM | 22 µM | 14.6 µM | 18.9 µM | 20.5 µM | 12.8 µM | 16 µM | 1.64 µM | 4.45 µM | 3.61 µM | 5.81 µM | 3.17 µM | 3.44 µM | 5.93 µM | 4.61 µM | 3.37 µM | 4.37 µM
